# From article PMC6413121, “Antiplasmodial and Cytotoxic Cytochalasins from an Endophytic Fungus, Nemania sp. UM10M, Isolated from a Diseased Torreya taxifolia Leaf” (Molecules, 2019)
# Like-named read-outs stand apart in the source and are kept apart here.
# How the values were obtained:
# [1] = test system: P. falciparum D6 (chloroquine sensitive) strain; test: microbe, parasite or virus in culture; format: cell-based, Plasmodium falciparum; conditions: for Chloroquine-Sensitive (D6)-Strain S. I.: selectivity index = IC50 for cytotoxicity (Vero)/IC50 for antiplasmodial activity; for IC50: Plasmodium falciparum
# [2] = test system: P. falciparum W2 (chloroquine resistant) strain; test: microbe, parasite or virus in culture; format: cell-based, Plasmodium falciparum; conditions: for Chloroquine-Resistant (W2)-Strain S. I.: selectivity index = IC50 for cytotoxicity (Vero)/IC50 for antiplasmodial activity; for IC50: Plasmodium falciparum
# [3] = test system: Vero cells (mammalian kidney fibroblasts); test: in vitro; format: cell-based; conditions: highest concentration tested […]
# [4] = test system: P. berghei (NK-65 strain); test: In vivo antimalarial assay in mice infected with P. berghei; parameters: species or system mice (Swiss Webster); conditions: for Day of Death (post infection): one value per animal; for % Parasitemia Suppression Day 5 / % Parasitemia Suppression Day 7: vehicle control = 100% parasitemia, < 80% non-significant
# Procedure: The protocol for in vivo antimalarial evaluation was approved by the University of Mississippi Institutional Animal Care and Use Committee (IACUC). The in vivo antimalarial activity was determined in mice infected with P. berghei (NK-65 strain). Male mice (Swiss Webster strain) weighing 18-20 g were intraperitoneally inoculated with 2 × 10^7 parasitized red blood cells obtained from a highly infected donor mouse. Mice were divided into different groups with five mice in each group. Compound stocks were prepared in DMSO and administered orally to the mice through gavage two hours after the infection (day 0). The animals were treated once daily for consecutive days (day 0 to 2) and were closely observed for at least 2 h after every dose for any apparent signs of toxicity. Blood smears were prepared on different days starting from 5 days post infection (through 28 days) by clipping the tail end, stained with Giemsa, and the slides were observed under microscope for determination of parasitemia. Mice without parasitemia through day 28 postinfection were considered as cured. Also, suppression in development of parasitemia was computed by comparing the parasitemia in the control vehicle treated group and groups treated with compound. The mean survival time was also computed for control and treated groups. The results are presented as parasitemia suppression of day 5 post treatment, mean survival time of mice in each group, cure and survival graphs computed by Prism 6.0. (San Diego, CA, USA).
# [5] = in vitro; format: cell-based; conditions: African green monkey
# [6] = test system: lettuce (Lactuca sativa cv. L., Iceberg); test: In vitro phytotoxicity assay, lettuce; conditions: 1 mg/mL; 10% acetone; scale of 0 to 5, 0 = no effect, 5 = no growth
# Procedure: (§1) Herbicidal or phytotoxic activity of the extract and compounds was performed according to the published procedure using bentgrass (Agrostis stolonifera) and lettuce (Lactuca sativa cv. L., Iceberg), in 24-well plates. Phytotoxicity was ranked visually. The ranking of phytotoxic activity was based on a scale of 0 to 5 with 0 showing no effect and 5 no growth.
# [7] = test system: bentgrass (Agrostis stolonifera); test: In vitro phytotoxicity assay, bentgrass; conditions: 1 mg/mL; 10% acetone; scale of 0 to 5, 0 = no effect, 5 = no growth
# Procedure: as §1
# [8] = in vitro; format: cell-based, human; conditions: human, concentration causing 50% growth inhibition
# Procedure: (§2) In vitro cytotoxicity was determined against a panel of mammalian cells that included kidney fibroblast (Vero), kidney epithelial (LLC-PK11), malignant melanoma (SK-MEL), oral epidermal carcinoma (KB), breast ductal carcinoma (BT-549), and ovary carcinoma (SK-OV-3) cells Doxorubicin was used as a positive control.
# [9] = in vitro; format: cell-based, pig; conditions: pig; concentration causing 50% growth inhibition; read-out: Cytotoxic activity IC50, LLC-PK11
# Procedure: as §2
# [10] = intraperitoneal, subcutaneous, or intravenous injections up to 100 mg/kg/day; cited from earlier work
# [11] = test system: BT-549 (human breast carcinoma, ductal); test: in vitro; format: cell-based; conditions: concentration causing 50% growth inhibition; read-out: Cytotoxic activity IC50, BT-549
# Procedure: as §2
# [12] = test system: KB (human epidermal carcinoma); test: in vitro; format: cell-based; conditions: concentration causing 50% growth inhibition; read-out: Cytotoxic activity IC50, KB
# Procedure: as §2
# [13] = test system: SK-MEL (human malignant melanoma); test: in vitro; format: cell-based; conditions: concentration causing 50% growth inhibition; read-out: Cytotoxic activity IC50, SK-MEL
# Procedure: as §2
# [14] = test system: SK-OV-3 (human ovary carcinoma); test: in vitro; format: cell-based; conditions: concentration causing 50% growth inhibition; read-out: Cytotoxic activity IC50, SK-OV-3
# Procedure: as §2
# [15] = test system: LLC-PK11 (pig kidney epithelial); test: in vitro; format: cell-based; conditions: concentration causing 50% growth inhibition; read-out: Cytotoxic activity IC50, LLC-PK11
# Procedure: as §2
# [16] = W2, read-out: Chloroquine-Resistant (W2)-Strain IC50
# [17] = W2, read-out: Chloroquine-Resistant (W2)-Strain IC50 (ng/mL)
# [18] = PO, 100 mg/kg × 3 days, P. berghei
# [19] = P. falciparum D6, read-out: Chloroquine-Sensitive (D6)-Strain IC50
# [20] = P. falciparum D6, read-out: Chloroquine-Sensitive (D6)-Strain IC50 (ng/mL)
# [21] = highest concentration tested […], read-out: Cytotoxicity to Vero Cells IC50
# [22] = read-out: Cytotoxicity to Vero cells
# [23] = read-out: Cytotoxic activity IC50, BT-549
# [24] = read-out: Cytotoxic activity IC50, KB
# [25] = read-out: Cytotoxic activity IC50, SK-MEL
# [26] = read-out: Cytotoxic activity IC50, SK-OV-3
Structure (SMILES),Chloroquine-Sensitive (D6)-Strain S. I. [1],Chloroquine-Resistant (W2)-Strain S. I. [2],"IC50 [2, 16] [nM]","IC50 [2, 17] [ng/mL]","IC50 [1, 19] [nM]","IC50 [1, 20] [ng/mL]","IC50 [5, 21] [µg/mL]","Phytotoxic activity, Lettuce (ranking) [6]","Phytotoxic activity, Bentgrass (ranking) [7]","IC50 [8, 23] [nM]","IC50 [8, 24] [nM]","IC50 [8, 25] [nM]","IC50 [8, 26] [nM]",IC50 [9] [nM],Toxicity in animal models at therapeutic doses [10],also measured
"C[C@@H]1CC[C@H]2[C@@H](C)C(=O)O[C@@H]3O[C@@]4(C)CC[C@@H]1[C@]32OO4 [Artemisinin, reference compound]",>850,>1586.6,,,,,,,,,,,,,,Cytotoxicity to Vero Cells IC50 [3]: NC (not cytotoxic at the highest concentration tested (4760 ng/mL))
"CCN(CC)CCCC(C)Nc1ccnc2cc(Cl)ccc12 (stereo not drawn) [Chloroquine, reference compound]",,,310,160,,,,,,,,,,,,"IC50 ([1]; D6, read-out: Chloroquine-Sensitive (D6)-Strain IC50): 30 nM; IC50 ([1]; D6, read-out: Chloroquine-Sensitive (D6)-Strain IC50 (ng/mL)): 16 ng/mL; Cytotoxicity to Vero Cells IC50 [3]: NC (not cytotoxic at the highest concentration tested (4760 ng/mL)); Cure (mice without parasitemia till day 28 post-infection) [4, 18]: 2/5; MST (mean survival time) [4, 18]: 28 days; Survival (animals that survived day 28/total animals in group) [4, 18]: 5/5; Day of Death (post infection) [4, 18]: 28/28/28/28/28; % Parasitemia Suppression Day 5 [4, 18]: 100%; % Parasitemia Suppression Day 7 [4, 18]: 100%"
"CC(=O)OC1C2OC2C(C)(O)C(=O)C(C)CC=CC2C(O)C(C)=C(C)C3C(Cc4ccccc4)NC(=O)C213 [Compound 1, (3S,4R,7S,8S,9R,16S,18R,19R,20S,21S)-19,20-epoxycytochalasin C]",>128.6,>170,50,28,70,37,> 4.76,3,2,> 10000,> 10000,8020,> 10000,> 10000,,"IC50 [5, 22]: > 4.76 µg/mL; MST (mean survival time) [4, 18]: 5.2 days; Survival (animals that survived day 28/total animals in group) [4, 18]: 0/5; Day of Death (post infection) [4, 18]: 17/5/3/1/0; % Parasitemia Suppression Day 5 [4, 18]: 33.9%; % Parasitemia Suppression Day 7 [4, 18]: 71.4%; Animals that died due to drug induced toxicity ([4]; oral, 100 mg/kg/day for 3 days): Three out of 5"
"C=C1C(C)C2C(Cc3ccccc3)NC(=O)C23C(C=CCC(C)C(=O)C(C)(O)C2OC2C3OC(C)=O)C1O [Compound 2, (3S,4R,5S,7S,8S,9R,16S,18R,19R,20S,21S)-19,20-epoxycytochalasin D]",>216.3,>238,40,20,40,22,> 4.76,3,3,7840,> 10000,> 10000,> 10000,8400,,"IC50 [5, 22]: > 4.76 µg/mL"
"CC(=O)OC1C2OC2C(C)C(=O)C(C)CC=CC2C(O)C(C)=C(C)C3C(Cc4ccccc4)NC(=O)C213 [Compound 3, (3S,4R,7S,8S,9R,16(S),18S,19S,20R,21S)-18-deoxy-19,20-epoxycytochalasin C]",>17,>47.6,190,100,560,280,> 4.76,3,4,6890,> 10000,> 10000,> 10000,> 10000,,
C=C1[C@@H](C)[C@H]2[C@H](Cc3ccccc3)NC(=O)[C@]23OC(=O)/C=C/[C@H](O)CCC[C@@H](C)C/C=C/[C@H]3[C@@H]1O [Cytochalasin B],,,,,,,,,,,,,,,no toxicity,
C=C1[C@@H](C)[C@H]2[C@H](Cc3ccccc3)NC(=O)[C@]23[C@H](OC(C)=O)/C=C/[C@@](C)(O)C(=O)[C@@H](C)C/C=C/[C@H]3[C@@H]1O [Cytochalasin D],,,,,,,,,,,,,,,no toxicity,
C[C@H]1C/C=C/[C@H]2[C@@H]3O[C@]3(C)[C@@H](C)[C@H]3[C@H](Cc4ccccc4)NC(=O)[C@]32OC(=O)O/C=C/[C@@](C)(O)C1=O [Cytochalasin E],,,,,,,,,,,,,,,no toxicity,
"COc1cccc2c1C(=O)c1c(O)c3c(c(O)c1C2=O)C[C@@](O)(C(=O)CO)C[C@@H]3O[C@H]1C[C@H](N)[C@H](O)[C@H](C)O1 [Doxorubicin, reference compound]",,,,,,,,,,,,,,,,IC50 [11]: 1830 nM; IC50 [12]: 2120 nM; IC50 [13]: 1290 nM; IC50 [14]: 1470 nM; IC50 [15]: 1280 nM
